Assay results as given in patent US20230398130A1, “METHODS AND COMPOSITIONS FOR DIFFERENTIATING STEM CELLS” (Massachusetts Institute of Technology, priority 2020, published 2023).

Columns and labels:
ISC-enriched organoids [1] = test: Primary screen, 384-well 2.5-D organoid differentiation (ENR+CD, 6 days): carbachol-induced lysozyme secretion (LYZ.S); type: cell-based, murine; settings: for Dose.FC.LYZ.S: primary screen, FC vs plate median; for Dose.FC.LYZ.S (log 2 fold change, carbachol-induced lysozyme secretion): vs plate median
Description: (§1) High-throughput screening.

ISC-enriched organoids [2] = test: Primary screen, 384-well 2.5-D organoid differentiation (ENR+CD, 6 days): basal lysozyme secretion (LYZ.NS); type: cell-based, murine; settings: for Dose.FC.LYZ.NS: FC vs plate median; for Z.LYZ.NS: standard z score of FC; for Dose.FC.LYZ.NS (log 2 fold change, basal lysozyme secretion): vs plate median
Description: as §1

ISC-enriched organoids [3] = test: Primary screen, 384-well 2.5-D organoid differentiation (ENR+CD, 6 days, Target Selective Inhibitor Library, vs whole-plate median): ATP (CellTiter-Glo 3D, CTG); settings: for Dose.FC.CTG: FC vs plate median; for Z.CTG: standard z score of FC; for Dose.FC.CTG (log 2 fold change, ATP): vs plate median
[4] = primary screen, dose 0.08 uM, ENR+CD 6 days
[5] = primary screen, dose 0.40 uM, ENR+CD 6 days
[6] = primary screen, dose 2.00 uM, ENR+CD 6 days
[7] = primary screen, dose 10.00 uM, ENR+CD 6 days

CCCCCCCCCCCCCCCCn1cc[n+](Cc2ccccc2)c1C.[I-] [NH125]
Dose.FC.LYZ.S (ISC-enriched organoids [1]; Dose 0.08 uM): −0.114 log 2 fold change | Dose.FC.LYZ.S (ISC-enriched organoids [1]; Dose 0.40 uM): −0.237 log 2 fold change | Dose.FC.LYZ.S (ISC-enriched organoids [1]; Dose 2.00 uM): −0.358 log 2 fold change | Dose.FC.LYZ.S (ISC-enriched organoids [1]; Dose 10.00 uM): −0.374 log 2 fold change | Dose.FC.LYZ.NS (ISC-enriched organoids [2]; Dose 0.08 uM, primary screen): −0.035 log 2 fold change | Z.LYZ.NS (ISC-enriched organoids [2]; Dose 0.08 uM): −0.301 | Dose.FC.LYZ.NS (ISC-enriched organoids [2]; Dose 0.40 uM, primary screen): −0.188 log 2 fold change | Z.LYZ.NS (ISC-enriched organoids [2]; Dose 0.40 uM): −1.634 | Dose.FC.LYZ.NS (ISC-enriched organoids [2]; Dose 2.00 uM, primary screen): −0.219 log 2 fold change | Z.LYZ.NS (ISC-enriched organoids [2]; Dose 2.00 uM): −1.904 | Dose.FC.LYZ.NS (ISC-enriched organoids [2]; Dose 10.00 uM, primary screen): −0.263 log 2 fold change | Z.LYZ.NS (ISC-enriched organoids [2]; Dose 10.00 uM): −2.293 | Dose.FC.CTG (ISC-enriched organoids [3]; Dose 0.08 uM, primary screen): −0.347 log 2 fold change | Z.CTG (ISC-enriched organoids [3]; Dose 0.08 uM): −0.829 | Dose.FC.CTG (ISC-enriched organoids [3]; Dose 0.40 uM, primary screen): −0.508 log 2 fold change | Z.CTG (ISC-enriched organoids [3]; Dose 0.40 uM): −1.213 | Dose.FC.CTG (ISC-enriched organoids [3]; Dose 2.00 uM, primary screen): −1.106 log 2 fold change | Z.CTG (ISC-enriched organoids [3]; Dose 2.00 uM): −2.641 | Dose.FC.CTG (ISC-enriched organoids [3]; Dose 10.00 uM, primary screen): −1.787 log 2 fold change | Z.CTG (ISC-enriched organoids [3]; Dose 10.00 uM): −4.268

O=C1C(=O)N(Cc2ccc(Cl)c(Cl)c2)c2ccccc21 [Apoptosis Activator 2]
Dose.FC.LYZ.S (ISC-enriched organoids [1]; dose 0.08 uM, ENR+CD 6 days): 0.132 log 2 fold change | Dose.FC.LYZ.S (ISC-enriched organoids [1]; dose 0.40 uM, ENR+CD 6 days): 0.073 log 2 fold change | Dose.FC.LYZ.S (ISC-enriched organoids [1]; dose 2.00 uM, ENR+CD 6 days): −0.009 log 2 fold change | Dose.FC.LYZ.S (ISC-enriched organoids [1]; dose 10.00 uM, ENR+CD 6 days): −0.252 log 2 fold change | Dose.FC.LYZ.NS (ISC-enriched organoids [2]; [4]): 0.149 log 2 fold change | Z.LYZ.NS (ISC-enriched organoids [2]; primary screen, dose 0.08 uM): 1.302 | Dose.FC.LYZ.NS (ISC-enriched organoids [2]; [5]): 0.033 log 2 fold change | Z.LYZ.NS (ISC-enriched organoids [2]; primary screen, dose 0.40 uM): 0.290 | Dose.FC.LYZ.NS (ISC-enriched organoids [2]; [6]): −0.006 log 2 fold change | Z.LYZ.NS (ISC-enriched organoids [2]; primary screen, dose 2.00 uM): −0.049 | Dose.FC.LYZ.NS (ISC-enriched organoids [2]; [7]): −0.199 log 2 fold change | Z.LYZ.NS (ISC-enriched organoids [2]; primary screen, dose 10.00 uM): −1.734 | Dose.FC.CTG (ISC-enriched organoids [3]; [4]): 0.304 log 2 fold change | Z.CTG (ISC-enriched organoids [3]; primary screen, dose 0.08 uM): 0.725 | Dose.FC.CTG (ISC-enriched organoids [3]; [5]): 0.262 log 2 fold change | Z.CTG (ISC-enriched organoids [3]; primary screen, dose 0.40 uM): 0.626 | Dose.FC.CTG (ISC-enriched organoids [3]; [6]): 0.082 log 2 fold change | Z.CTG (ISC-enriched organoids [3]; primary screen, dose 2.00 uM): 0.195 | Dose.FC.CTG (ISC-enriched organoids [3]; [7]): −0.158 log 2 fold change | Z.CTG (ISC-enriched organoids [3]; primary screen, dose 10.00 uM): −0.378

Cl.Cl.Cl.O[C@@H](COc1cccc2ncccc12)CN1CCN([C@@H]2c3ccccc3[C@@H]3[C@H](c4ccccc42)C3(F)F)CC1 [Zosuquidar (LY335979) 3HCl]
Dose.FC.LYZ.S (log 2 fold change, carbachol-induced lysozyme secretion) (ISC-enriched organoids [1]; dose 0.08 uM): 0.124 | Dose.FC.LYZ.S (log 2 fold change, carbachol-induced lysozyme secretion) (ISC-enriched organoids [1]; dose 0.40 uM): 0.127 | Dose.FC.LYZ.S (log 2 fold change, carbachol-induced lysozyme secretion) (ISC-enriched organoids [1]; dose 2.00 uM): 0.129 | Dose.FC.LYZ.S (log 2 fold change, carbachol-induced lysozyme secretion) (ISC-enriched organoids [1]; dose 10.00 uM): −0.200 | Z.LYZ.NS (standard z score) (ISC-enriched organoids [2]; dose 0.08 uM): 0.839 | Dose.FC.LYZ.NS (log 2 fold change, basal lysozyme secretion) (ISC-enriched organoids [2]; dose 0.08 uM): 0.096 | Z.LYZ.NS (standard z score) (ISC-enriched organoids [2]; dose 0.40 uM): 0.696 | Dose.FC.LYZ.NS (log 2 fold change, basal lysozyme secretion) (ISC-enriched organoids [2]; dose 0.40 uM): 0.080 | Z.LYZ.NS (standard z score) (ISC-enriched organoids [2]; dose 2.00 uM): 1.802 | Dose.FC.LYZ.NS (log 2 fold change, basal lysozyme secretion) (ISC-enriched organoids [2]; dose 2.00 uM): 0.207 | Z.LYZ.NS (standard z score) (ISC-enriched organoids [2]; dose 10.00 uM): −1.821 | Dose.FC.LYZ.NS (log 2 fold change, basal lysozyme secretion) (ISC-enriched organoids [2]; dose 10.00 uM): −0.209 | Z.CTG (standard z score) (ISC-enriched organoids [3]; dose 0.08 uM): 0.041 | Dose.FC.CTG (log 2 fold change, ATP) (ISC-enriched organoids [3]; dose 0.08 uM): 0.017 | Z.CTG (standard z score) (ISC-enriched organoids [3]; dose 0.40 uM): 0.470 | Dose.FC.CTG (log 2 fold change, ATP) (ISC-enriched organoids [3]; dose 0.40 uM): 0.197 | Z.CTG (standard z score) (ISC-enriched organoids [3]; dose 2.00 uM): 0.659 | Dose.FC.CTG (log 2 fold change, ATP) (ISC-enriched organoids [3]; dose 2.00 uM): 0.276 | Z.CTG (standard z score) (ISC-enriched organoids [3]; dose 10.00 uM): −0.461 | Dose.FC.CTG (log 2 fold change, ATP) (ISC-enriched organoids [3]; dose 10.00 uM): −0.193

CC(C)(C)c1cc(/C=C(\C#N)C(N)=S)cc(C(C)(C)C)c1O [Tyrphostin AG 879]
Dose.FC.LYZ.S (log 2 fold change, carbachol-induced lysozyme secretion) (ISC-enriched organoids [1]; dose 0.08 uM): −0.083 | Dose.FC.LYZ.S (log 2 fold change, carbachol-induced lysozyme secretion) (ISC-enriched organoids [1]; dose 0.40 uM): −0.084 | Dose.FC.LYZ.S (log 2 fold change, carbachol-induced lysozyme secretion) (ISC-enriched organoids [1]; dose 2.00 uM): −0.051 | Dose.FC.LYZ.S (log 2 fold change, carbachol-induced lysozyme secretion) (ISC-enriched organoids [1]; dose 10.00 uM): −0.123 | Z.LYZ.NS (standard z score) (ISC-enriched organoids [2]; dose 0.08 uM): 0.088 | Dose.FC.LYZ.NS (log 2 fold change, basal lysozyme secretion) (ISC-enriched organoids [2]; dose 0.08 uM): 0.010 | Z.LYZ.NS (standard z score) (ISC-enriched organoids [2]; dose 0.40 uM): −0.680 | Dose.FC.LYZ.NS (log 2 fold change, basal lysozyme secretion) (ISC-enriched organoids [2]; dose 0.40 uM): −0.078 | Z.LYZ.NS (standard z score) (ISC-enriched organoids [2]; dose 2.00 uM): −0.698 | Dose.FC.LYZ.NS (log 2 fold change, basal lysozyme secretion) (ISC-enriched organoids [2]; dose 2.00 uM): −0.080 | Z.LYZ.NS (standard z score) (ISC-enriched organoids [2]; dose 10.00 uM): −0.960 | Dose.FC.LYZ.NS (log 2 fold change, basal lysozyme secretion) (ISC-enriched organoids [2]; dose 10.00 uM): −0.110 | Z.CTG (standard z score) (ISC-enriched organoids [3]; dose 0.08 uM): −0.828 | Dose.FC.CTG (log 2 fold change, ATP) (ISC-enriched organoids [3]; dose 0.08 uM): −0.347 | Z.CTG (standard z score) (ISC-enriched organoids [3]; dose 0.40 uM): −0.569 | Dose.FC.CTG (log 2 fold change, ATP) (ISC-enriched organoids [3]; dose 0.40 uM): −0.238 | Z.CTG (standard z score) (ISC-enriched organoids [3]; dose 2.00 uM): −0.554 | Dose.FC.CTG (log 2 fold change, ATP) (ISC-enriched organoids [3]; dose 2.00 uM): −0.232 | Z.CTG (standard z score) (ISC-enriched organoids [3]; dose 10.00 uM): −0.879 | Dose.FC.CTG (log 2 fold change, ATP) (ISC-enriched organoids [3]; dose 10.00 uM): −0.368
